Experimental data taken from patent US7115635B2, “Benzylpiperidine compound” (Mitsubishi Pharma Corporation, priority 2001, dated 2006).
pIC50: −log10 of the molar value. Counter-ions that a name gives are not always drawn.

Columns and labels:
human eosinophil = test: Binding inhibitory activity between chemokine ([125I]-eotaxin) and human eosinophil; conditions: 50 pmol/L [125I]-eotaxin, human eosinophil 2x10^5, 25 C, 1 hr; read-out: IC50 (concentration necessary for decreasing the binding between [125I]-eotaxin and human eosinophil by 50%)
Description: Human eosinophil was separated from the anticoagulation treated peripheral blood of a healthy subject by CD16 negative selection method (e.g., J. Immunol. Methods, vol., 145, pp. 105–110, 1991). The separated eosinophil (2×10^5), 50 pmol/L [^125I]-eotaxin (2000 Ci/mmoL, manufactured by AmershamPharmacia Biotech) and a test compound were mixed in 0.1 mL of a binding buffer (50 mmol/L HEPES, 1 mmol/L CaCl2, 5 mmol/L MgCl2, 0.5% bovine serum albumin (BSA), 0.1% sodium azide, pH 7.6), and the mixture was incubated at 25° C. for 1 hr in a multiscreen plate (manufactured by Millipore Corporation). After the completion of the incubation, the reaction mixture in the multiscreen plate was filtered in vacuo and washed with 0.6 mL of a cold washing buffer (50 mmol/L HEPES, 1 mmol/L CaCl2, 5 mmol/L MgCl2, 0.5 mol/L NaCl, 0.1% sodium azide, pH 7.6), and the radioactivity on the filter was measured. […] The IC50 values (concentration of a test compound necessary for decreasing the binding between [^125 I]-eotaxin and human eosinophil by 50%) of some of the compounds of the present invention were as follows.

CCR3 = molecular target: T1, CCR3 (Homo sapiens, UniProt P51677); test: Effect on intracellular calcium concentration in eosinophil on stimulation with CCL11; type: cell-based; conditions: human peripheral blood eosinophil, agonist CCL11 0.3 nmol/L, compound 5 min before stimulation, Fura-2 AM; read-out: IC50 of the increase in the intracellular calcium concentration
T1 construct: Eosinophil separated from the peripheral blood of a healthy subject; endogenous in cells; host or cells: eosinophils from peripheral blood of a healthy subject
T1 sequence (P51677 1-355): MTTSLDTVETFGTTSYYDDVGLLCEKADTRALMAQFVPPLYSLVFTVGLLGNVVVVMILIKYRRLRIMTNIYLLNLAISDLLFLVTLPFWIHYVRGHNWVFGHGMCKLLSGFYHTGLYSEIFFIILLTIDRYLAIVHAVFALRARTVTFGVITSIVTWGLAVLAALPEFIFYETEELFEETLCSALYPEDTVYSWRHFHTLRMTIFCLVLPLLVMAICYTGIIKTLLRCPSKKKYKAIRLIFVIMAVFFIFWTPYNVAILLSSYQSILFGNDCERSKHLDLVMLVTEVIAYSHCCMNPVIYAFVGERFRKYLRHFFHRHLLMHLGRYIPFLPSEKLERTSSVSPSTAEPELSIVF
Description: The effect of the compound of the present invention on intracellular calcium in eosinophil in the peripheral blood of a healthy subject on stimulation with CCL11 was elavuated by the following method.
Eosinophil separated from the peripheral blood of a healthy subject was suspended in a buffer for measurement (10 mmol/L HEPES, and 0.5% bovine serum albumin-containing hanks' balanced salt solution), and the suspension was incubated in the presence of 5 μmol/L of Fura-2 AM (manufactured by Dojindo Laboratories) at 37° C. for 45 min. After the completion of incubation, the cells were washed three times with the buffer for measurement to remove Fura-2 AM not-incorporated into the cells.
The cell suspension was adjusted to the final concentration of 1×10^6 cells/mL with the buffer for measurement and preserved in a dark place until measurement. The intracellular calcium was measured using FDSS6000 manufactured by Hamamatsu Photonics K.K. That is, a cell suspension (0.1 mL) loaded with Fura-2 AM was placed in a 96 well plate for measurement, and the plate was set on FDSS6000. The fluorescence intensities due to excitation lights at wavelengths 340 nm and 380 nm were measured. The ratio of the fluorescence intensities corresponding to the excitation lights at these two wavelengths was determined to calculate the intracellular calcium concentration. […]

[1] = Measurement of blood (plasma) concentration; type: in vivo; conditions: female rat, LC/MS, administered orally and intravenously (route and dose for Cmax not stated)
Description: The compound of the present invention was administered orally and intravenously to female rat, and the plasma concentration of the compound was measured. That is, the test compound was weighed, dissolved or suspended in a medium, diluted to the objective concentration, and orally and intravenously administered. After the administration, the blood was drawn with time from the cervical vein with a heparin treated syringe. The blood was centrifuged, the plasma was separated, and the plasma was preserved at −20° C. until analysis. The concentration of the compound in plasma was measured using LC/MS. The results are shown in the following [Table 3].

| pIC50 (human eosinophil) | pIC50 (CCR3) | Cmax [1] [ng/mL] | SMILES |
| --- | --- | --- | --- |
| 8.22 |  |  | N=C(N)Nc1nc(-c2ccc(CCCCC(=O)NC3CCN(Cc4ccc(Cl)c(Cl)c4)CC3)cc2)cs1 [Example 1, N-[1-(3,4-dichlorobenzyl)piperidin-4-yl]-5-[4-(2-guanidinothiazol-4-yl)phenyl]valeramide] |
| 7.96 |  |  | Nc1ccc(-c2csc(SCC(=O)NC3CCN(Cc4ccc(Cl)c(Cl)c4)CC3)n2)cc1 [Example 6, [4-(4-aminophenyl)thiazol-2-ylthio]-N-[1-(3,4-dichlorobenzyl)piperidin-4-yl]acetamide] |
| 8.40 | 8.22 |  | N=C(N)Nc1nc(-c2ccc(OCCCC(=O)NC3CCN(Cc4ccc(Cl)c(Cl)c4)CC3)cc2)cs1 [Example 9, N-[1-(3,4-dichlorobenzyl)piperidin-4-yl]-4-[4-(2-guanidinothiazol-4-yl)phenyloxy]butylamide ½ fumarate ¼ hydrate] |
|  |  | 3120 | Nc1cccc(-c2csc(SCC(=O)NC3CCN(Cc4ccc(Cl)c(Cl)c4)CC3)n2)c1 [Example 35, [4-(3-aminophenyl)thiazol-2-ylthio]-N-[1-(3,4-dichlorobenzyl)piperidin-4-yl]acetamide] |
